According to PubChem BioAssay AID248 (DTP/NCI, 2004):
“And” between values parts separate entries of the source, which are not always exact repeats. Equal values may be shown once. Inconclusive results and toxic doses are left out. Rule as the data show it: active = T/C of 150% or more; inactive = T/C below 125%.

Test system: L1210 leukemia ip in BDF1 mice, survival T/C
Test: NCI In Vivo Anticancer Drug Screen. Data for tumor model L1210 Leukemia (intraperitoneal) in B6D2F1 (BDF1) mice
Conditions: endpoint: mean survival time, higher = longer survival
Outline: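 Read-out is survival time, reported as the treated-group measurement over the vehicle-control measurement.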

[1] = dose: 100.0 mg/kg/injection, schedule: Q04DX003 (ip), vehicle: saline
[2] = dose: 200.0 mg/kg/injection, schedule: Q04DX003 (ip), vehicle: saline
[3] = dose: 400.0 mg/kg/injection, schedule: Q04DX003 (ip), vehicle: saline
[4] = dose: 100.0 mg/kg/injection, schedule: Q01DX001 (ip), vehicle: saline
[5] = dose: 100.0 mg/kg/injection, schedule: Q01DX009 (ip), vehicle: Klucel (hydroxypropylcellulose) (HPC)
[6] = dose: 200.0 mg/kg/injection, schedule: Q01DX001 (ip), vehicle: saline
[7] = dose: 200.0 mg/kg/injection, schedule: Q01DX009 (ip), vehicle: Klucel (hydroxypropylcellulose) (HPC)
[8] = dose: 400.0 mg/kg/injection, schedule: Q01DX001 (ip), vehicle: saline
[9] = dose: 400.0 mg/kg/injection, schedule: Q01DX009 (ip), vehicle: Klucel (hydroxypropylcellulose) (HPC)

Measured: T/C

NC(=S)NN=C1CCCCCCC1
inactive: dose: 8.4 mg/kg/injection, schedule: Q01DX Z (ip), vehicle: methylcellulose (MC) 98 % of control | dose: 23.0 mg/kg/injection, schedule: Q01DX Z (ip), vehicle: methylcellulose (MC) 101 % of control | dose: 39.0 mg/kg/injection, schedule: Q01DX Z (ip), vehicle: methylcellulose (MC) 111 % of control

CC(C)CC(C=O)(CCN(C)C)c1cccc2ccccc12 (stereo not given)
inactive: dose: 12.5 mg/kg/injection, schedule: Q04DX003 (ip), vehicle: saline with Tween-80 107 % of control | dose: 25.0 mg/kg/injection, schedule: Q04DX003 (ip), vehicle: saline with Tween-80 103 % of control | dose: 50.0 mg/kg/injection, schedule: Q04DX003 (ip), vehicle: saline with Tween-80 92 % of control

O=C(CNC(=O)OCc1ccccc1)NC(Cc1ccccc1)C(=O)Oc1c(Cl)c(Cl)c(Cl)c(Cl)c1Cl (stereo not given)
inactive: dose: 75.0 mg/kg/injection, schedule: Q01DX001 (ip), vehicle: carboxymethylcellulose (CMC) 106 % of control | dose: 150.0 mg/kg/injection, schedule: Q01DX001 (ip), vehicle: carboxymethylcellulose (CMC) 98 % of control | dose: 300.0 mg/kg/injection, schedule: Q01DX001 (ip), vehicle: carboxymethylcellulose (CMC) 91 % of control

O=C1C=C(Nc2cccc(O)c2)c2ccccc2C1=O
inactive: [1] 94 % of control | [2] 97 % of control | [3] 89 % of control

COC(=O)c1ccc(OC(=O)Nc2ccccc2F)cc1
inactive: dose: 25.0 mg/kg/injection, schedule: Q01DX009 (ip), vehicle: saline with Tween-80 106 % of control | dose: 50.0 mg/kg/injection, schedule: Q01DX009 (ip), vehicle: saline with Tween-80 119 % of control | dose: 100.0 mg/kg/injection, schedule: Q01DX009 (ip), vehicle: saline with Tween-80 95 % of control and 108 % of control

CCCCCCCCNc1cc2c3c(c1)CCCN3CCC2
inactive: dose: 0.78 mg/kg/injection, schedule: Q01DX009 (ip), vehicle: alcohol 110 % of control | dose: 1.56 mg/kg/injection, schedule: Q01DX009 (ip), vehicle: alcohol 102 % of control | dose: 1.56 mg/kg/injection, schedule: Q04DX003 (ip), vehicle: alcohol 102 % of control | dose: 3.12 mg/kg/injection, schedule: Q01DX009 (ip), vehicle: alcohol 113 % of control | dose: 3.12 mg/kg/injection, schedule: Q04DX003 (ip), vehicle: alcohol 108 % of control | dose: 6.25 mg/kg/injection, schedule: Q04DX003 (ip), vehicle: alcohol 97 % of control | dose: 25.0 mg/kg/injection, schedule: Q04DX003 (ip), vehicle: alcohol 88 % of control

Cc1cc(NS(=O)(=O)c2ccc(N)cc2)no1
inactive: dose: 100.0 mg/kg/injection, schedule: Q01DX009 (ip), vehicle: saline 97 % of control | [1] 104 % of control | dose: 200.0 mg/kg/injection, schedule: Q01DX009 (ip), vehicle: saline 94 % of control | [2] 99 % of control | dose: 400.0 mg/kg/injection, schedule: Q01DX009 (ip), vehicle: saline 96 % of control | [3] 114 % of control

N#CC12CC3CC(CC(C3)C1)C2
inactive: dose: 5.0 mg/kg/injection, schedule: Q01DX009 (ip), vehicle: saline with Tween-80 104 % of control | dose: 10.0 mg/kg/injection, schedule: Q01DX009 (ip), vehicle: saline with Tween-80 98 % of control | dose: 20.0 mg/kg/injection, schedule: Q01DX001 (ip), vehicle: carboxymethylcellulose (CMC) 96 % of control | dose: 20.0 mg/kg/injection, schedule: Q01DX009 (ip), vehicle: saline with Tween-80 112 % of control | dose: 40.0 mg/kg/injection, schedule: Q01DX001 (ip), vehicle: carboxymethylcellulose (CMC) 95 % of control | dose: 80.0 mg/kg/injection, schedule: Q01DX001 (ip), vehicle: carboxymethylcellulose (CMC) 96 % of control

CN(N=Nc1ccc(C(=N)N)cc1)C1CCCCC1
inactive: dose: 9.5 mg/kg/injection, schedule: Q01DX001 (ip), vehicle: saline 95 % of control | dose: 19.0 mg/kg/injection, schedule: Q01DX001 (ip), vehicle: saline 98 % of control | dose: 38.0 mg/kg/injection, schedule: Q01DX001 (ip), vehicle: saline 95 % of control

c1ccc2c(c1)Sc1ccccc1N2CCCN1CCCC1
inactive: dose: 6.25 mg/kg/injection, schedule: Q04DX003 (ip), vehicle: saline 108 % of control | dose: 12.5 mg/kg/injection, schedule: Q04DX003 (ip), vehicle: saline 105 % of control | dose: 25.0 mg/kg/injection, schedule: Q04DX003 (ip), vehicle: saline 116 % of control | dose: 50.0 mg/kg/injection, schedule: Q01DX001 (ip), vehicle: saline 108 % of control and 123 % of control | dose: 50.0 mg/kg/injection, schedule: Q04DX003 (ip), vehicle: saline 106 % of control | [4] 97 % of control and 103 % of control

CC(=O)N(N=O)c1ccc(C)cc1
inactive: dose: 5.0 mg/kg/injection, schedule: Q01DX001 (ip), vehicle: saline 101 % of control | dose: 10.0 mg/kg/injection, schedule: Q01DX001 (ip), vehicle: saline 92 % of control | dose: 20.0 mg/kg/injection, schedule: Q01DX001 (ip), vehicle: saline 92 % of control | dose: 40.0 mg/kg/injection, schedule: Q01DX001 (ip), vehicle: saline 106 % of control

CN(C)c1ccc(C(Nc2ccccc2)C(Nc2ccccc2)c2ccc(N(C)C)cc2)cc1 (stereo not given)
inactive: dose: 100.0 mg/kg/injection, schedule: Q01DX001 (ip), vehicle: other 102 % of control | dose: 200.0 mg/kg/injection, schedule: Q01DX001 (ip), vehicle: other 87 % of control | dose: 400.0 mg/kg/injection, schedule: Q01DX001 (ip), vehicle: other 89 % of control

c1ccc2ncc(-c3ccc4ccccc4n3)cc2c1
inactive: dose: 100.0 mg/kg/injection, schedule: Q01DX001 (ip), vehicle: Klucel (hydroxypropylcellulose) (HPC) 100 % of control | [4] 107 % of control | [5] 97 % of control and 116 % of control | dose: 200.0 mg/kg/injection, schedule: Q01DX001 (ip), vehicle: Klucel (hydroxypropylcellulose) (HPC) 94 % of control | [6] 96 % of control | [7] 95 % of control and 101 % of control | dose: 400.0 mg/kg/injection, schedule: Q01DX001 (ip), vehicle: Klucel (hydroxypropylcellulose) (HPC) 100 % of control | [8] 96 % of control | [9] 94 % of control and 100 % of control

Nc1nc(N)c(N=Nc2ccc([As](=O)(O)O)c(O)c2)c(=O)[nH]1
inactive: [4] 91 % of control | [6] 93 % of control | [8] 93 % of control

N/C(=N/N=C/c1ccccc1)N/N=C\c1ccccc1
inactive: dose: 15.0 mg/kg/injection, schedule: Q01DX Z (oral), vehicle: saline 95 % of control | dose: 30.0 mg/kg/injection, schedule: Q01DX Z (oral), vehicle: saline 95 % of control | dose: 60.0 mg/kg/injection, schedule: Q01DX Z (oral), vehicle: saline 91 % of control | dose: 120.0 mg/kg/injection, schedule: Q01DX Z (oral), vehicle: saline 95 % of control

COC(=O)CC(=O)c1ccc(S(=O)(=O)F)cc1
inactive: [5] 104 % of control | dose: 100.0 mg/kg/injection, schedule: Q04DX003 (ip), vehicle: Klucel (hydroxypropylcellulose) (HPC) 98 % of control | [7] 97 % of control | dose: 200.0 mg/kg/injection, schedule: Q04DX003 (ip), vehicle: Klucel (hydroxypropylcellulose) (HPC) 96 % of control | [9] 101 % of control | dose: 400.0 mg/kg/injection, schedule: Q04DX003 (ip), vehicle: Klucel (hydroxypropylcellulose) (HPC) 100 % of control

CC1CC(C(=O)O)C(Cc2ccc([N+](=O)[O-])cc2)C1=O (stereo not given)
inactive: dose: 100.0 mg/kg/injection, schedule: Q04DX002 (ip), vehicle: Klucel (hydroxypropylcellulose) (HPC) 93 % of control | dose: 200.0 mg/kg/injection, schedule: Q04DX002 (ip), vehicle: Klucel (hydroxypropylcellulose) (HPC) 93 % of control | dose: 400.0 mg/kg/injection, schedule: Q04DX002 (ip), vehicle: Klucel (hydroxypropylcellulose) (HPC) 89 % of control
